Source: patent publication US4452812A, “Organic complex of platinum, its preparation and its use for treating malignant tumors” (Sanofi, priority 1980, dated 1984)
“Also recorded” adds a separate entry of the source.

Experiments:
leukemia L 1210 = assay: Anti-tumour activity, leukemia L 1210, i.p. graft, i.p. treatment
Method: […] females (CNRS, Orleans) of 20 to 22 g
(a) i.p. graft--i.p. treatment
10^5 cells were grafted intraperitoneally on D0 and intraperitoneal treatment was carried out 24 hours later, D1, in one single injection.
PHD and PHM were suspended in a 4% Klucel (hydroxy propyl cellulose) solution (the word "Klucel" is a registered trademark of Hercules Incorporated, Delaware, U.S.A.).
The solutions of these compounds were prepared extemporaneously. The increase in life span, ILS (%), were calculated in comparison with the controls by the following formula: [formula] Deaths were recorded until day 30 for L 1210 tumour and until day 60 for S180 tumour.

sarcoma S 180 = assay: Anti-tumour activity, sarcoma S 180 ascite, i.p. graft, i.p. treatment; assay type: in vivo, mouse (Swiss female); conditions: for ILS: single i.p. on D1
Method: Swiss female mice (Evic-Ceba, Bordeaux) of 20 to 22 g
10^6 cells intraperitoneally grafted on D0
intraperitoneal treatment 24 hours later, D1, in one single injection.
The solutions of these compounds were prepared extemporaneously.

L 1210 cells = assay: Cytotoxicity on L 1210 cells in culture; assay type: cell-based; conditions: read-out: ID50 (reduces by 50% the rate of growth of the cells); usually 24 to 48 hours contact
rat = assay: Acute toxicity in the rat; assay type: in vivo, rat (Sprague-Dawley)
Method: Acute toxicity, one single injection of the compound, was measured using Swiss female mice (Evic-Ceba, Bordeaux) of 21 to 23 g. and Sprague-Dawley rats. Ten animals were treated for each dose studied.

DNA = assay: Platinum fixed on DNA of L 1210 cells in vivo; set-up: species or system mouse (DBA/2); conditions: PDD 9 mg/kg, PHIC 150 mg/kg; two hours after treatment on D3
Method: DBA/2 mice received 10^6 L 1210 cells on D0 and were treated three days later with an amount of platinum compound equal to the LD0 in the healthy mouse. Two hours after treatment on D3, the animals were sacrificed. […] Platinum was monitored by atomic absorption for whole cells and also on the DNA which was purified by phenol extraction. […] Under these conditions, one fixed platinum atom per 3000 nucleotides was found, i.e. a total of 1% of the amount which penetrated the cells was complexed to DNA. […] 10^-16 of platinum per cell.

[1] = system: baboon (ear, Corti organ); assay: Ototoxicity test in the baboon (auditory potentials, echocochleography); assay type: in vivo; conditions: baboon No 3, 200 mg/kg, D31
Method: An ototoxicity test was carried out on baboon No. 3 (200 mg/kg) on D31. This test comprised the following: (a) Registering the auditory potentials when the ear was submitted to 1500 stimuli at 90, 80, 70, 60, 50, 40, 30, 20 and 10 decibels. The results gave the latency times for conduction from the ear to the brain. (b) Performing the same kind of test by echocochleography. This analysis was much more accurate than the previous one because it was only carried out in the Corti organ (cochlea). Frequencies of 8000, 4000, 2000 and 1000 Hertz at 90, 70, 50, 30, 20 and 10 decibels were used. Measurements were made using a Racia Medelec Empled MK4 1026. […] The properties of PHIC compared to those of PDD can be summarized as follows: […]

For `NC1CCCCC1N.O=C([O-])CC(C(=O)[O-])C([O-])C(=O)[O-].[H+].[H+].[Pt+2]` (stereo not drawn) [PHIC, cis-isocitrato (1,2-diaminocyclohexane) platinum (II)], the ILS (leukemia L 1210; 5 mg/kg, single i.p. on D1) was 16%, the ILS (leukemia L 1210; 10 mg/kg, single i.p. on D1) was 40% and the ILS (leukemia L 1210; 25 mg/kg, single i.p. on D1) was 59%. For the same compound, the ILS (leukemia L 1210; 50 mg/kg, single i.p. on D1) was 79%, the toxic death (leukemia L 1210; 100 mg/kg i.p., excluded from ILS calculation) was “one toxic death” and the ILS (leukemia L 1210; 100 mg/kg, single injection on D1) was 129%. For the same compound, the Survivals (leukemia L 1210; L 1210, 5 mg/kg i.p. on D1, day 30) was 0%, the Survivals (leukemia L 1210; L 1210, 10 mg/kg i.p. on D1, day 30) was 0% and the Survivals (leukemia L 1210; L 1210, 25 mg/kg i.p. on D1, day 30) was 0%. The Survivals (leukemia L 1210; L 1210, 50 mg/kg i.p. on D1, day 30) was 0%, the Survivals (leukemia L 1210; L 1210, 100 mg/kg i.p. on D1, day 30) was 20% and the “anti-tumour activity (in words)” value (leukemia L 1210; leukemia L 1210) was “Very marked anti-tumor activity; also recorded: exerts the anti-tumour activity”. The “Surviving animals having received L 1210 leukaemia and S 180 sarcoma” value (leukemia L 1210; summary for L 1210 and S 180) was “Yes”, the ILS (sarcoma S 180; 10 mg/kg) was 29% and the ILS (sarcoma S 180; 25 mg/kg) was 46%. For the same compound, the ILS (sarcoma S 180; 50 mg/kg) was 112%, the ILS (sarcoma S 180; 100 mg/kg) was 171% and the Survivals (sarcoma S 180; S 180, 10 mg/kg i.p. on D1, day 60) was 0%. For the same compound, the Survivals (sarcoma S 180; S 180, 25 mg/kg i.p. on D1, day 60) was 0%, the Survivals (sarcoma S 180; S 180, 50 mg/kg i.p. on D1, day 60) was 20% and the Survivals (sarcoma S 180; S 180, 100 mg/kg i.p. on D1, day 60) was 40%. For the same compound, the “anti-tumour activity (in words)” value (sarcoma S 180; sarcoma S 180) was “Very marked anti-tumor activity; also recorded: exerts the anti-tumour activity”, the IC50 (L 1210 cells) was 420 nM and the LD10 (rat; I.P.) was 61 mg/kg. It also gave an LD50 (rat; I.P.) of 143 mg/kg, an LD90 (rat; I.P.) of 278 mg/kg and an LD10 (rat; I.V.) of 111 mg/kg. For the same compound, the LD50 (rat; I.V.) was 173 mg/kg, the LD90 (rat; I.V.) was 244 mg/kg and the LD50 (rat; P.O.) was > 1 000 mg/Kg. For the same compound, the “Number of fixed platinum atoms per nucleotide on DNA” value (DNA) was 1/3500, the “amount that penetrated the cells which was complexed to DNA” value (DNA) was 1% and the “nucleotides per one fixed platinum atom” value (DNA) was 3500 nucleotides. The ototoxic effect [1] was “No ototoxic effect was detected”.
